Test results reported in patent publication US8183236B2, “Compounds with HIV-1 integrase inhibitory activity and use thereof as anti-HIV/AIDS therapeutics” (University of Southern California, priority 2007, dated 2012).

Tests used:
[1] = target: T1, HIV-1 integrase (wild-type IN) (Human immunodeficiency virus type 1 group M subtype B, UniProt P12497); assay: HIV-1 integrase strand transfer assay (32P-labeled 21-mer, gel); type: biochemical
Description: (§1) The oligonucleotides 21 top, 5′-[…]-3′ (SEQ ID NO:1) and 21 bot, 5′-[…]-3′ (SEQ ID NO:2) were purchased from Norris Cancer Center Core Facility (University of Southern California) and purified by UV shadowing on polyacrylamide gel. To analyze the extent of 3′-processing and strand transfer using 5′-end labeled substrates, 21 top was 5′-end labeled using T4 polynucleotide kinase (Epicentre, Madison, Wis.) and γ [^32P]-ATP (Amersham Biosciences or ICN). The kinase was heat-inactivated and 21 bot was added in 1.5-molar excess. The mixture was heated at 95° C., allowed to cool slowly to room temperature, and run through a spin 25 mini-column (USA Scientific) to separate annealed double-stranded oligonucleotide from unincorporated material.
(§2) To determine the extent of 3′-processing and strand transfer, wild-type IN was preincubated at a final concentration of 200 nM with the inhibitor in reaction buffer (50 mM NaCl, 1 mM HEPES, pH 7.5, 50 μM EDTA, 50 μM dithiothreitol, 10% glycerol (w/v), 7.5 mM MnCl2, 0.1 mg/ml bovine serum albumin, 10 mM 2-mercaptoethanol, 10% dimethyl sulfoxide, and 25 mM MOPS, pH 7.2) at 30° C. for 30 min. Then, 20 nM of the 5′-end ^32P-labeled linear oligonucleotide substrate was added, and incubation was continued for an additional one hour. Reactions were quenched by the addition of an equal volume (16 μl) of loading dye (98% deionized formamide, 10 mM EDTA, 0.025% xylene cyanol and 0.025% bromophenol blue). An aliquot (5 μl) was electrophoresed on a denaturing 20% polyacrylamide gel (0.09 M tris-borate pH 8.3, 2 mM EDTA, 20% acrylamide, 8M urea).
(§3) Gels were dried, exposed in a PhosphorImager cassette, and analyzed using a Typhoon 8610 Variable Mode Imager (Amersham Biosciences) and quantitated using ImageQuant 5.2. Percent inhibition (% I) was calculated using the following equation: %I=100×[1−(D−C)/(N−C)]
(§4) where C, N, and D are the fractions of 21-mer substrate converted to 19-mer (3′-processing product) or strand transfer products for DNA alone, DNA plus IN, and IN plus drug, respectively. The IC50 values were determined by plotting the logarithm of drug concentration versus percent inhibition to obtain concentration that produced 50% inhibition. […]

[2] = target: T1, HIV-1 integrase (wild-type IN); assay: HIV-1 integrase 3′-processing assay (32P-labeled 21-mer, gel); type: biochemical
Description: as §1, §2, §3, §4

[3] = unit inferred, read-out: IN inhibition activity Strand transfer
[4] = unit inferred, read-out: IN inhibition activity 3′-processing
[5] = wild-type IN 200 nM, 7.5 mM MnCl2, read-out: Inhibition of IN Catalytic Activities IC50 (μM) 3′-processing
[6] = wild-type IN 200 nM, 7.5 mM MnCl2, read-out: Inhibition of IN Catalytic Activities IC50 (μM) Strand Transfer

Row | SMILES | IC50 [1, 3] [µM] | IC50 [2, 4] [µM] | IC50 [2, 5] [µM] | IC50 [1, 6] [µM]
1 | Cn1c(SCC(=O)NNC(=O)c2ccccc2O)nnc1-c1ccccc1 [AS9A1] | 58 ± 2 | 64 ± 4 | – | –
2 | COc1ccc(-n2c(Cc3ccccc3)nnc2SCC(=O)NNC(=O)c2ccccc2O)cc1 [AS9A2] | 17 ± 1 | 18 ± 1 | – | –
3 | Cc1cc(C)nc(SCc2nnc(SCC(=O)NNC(=O)c3ccccc3O)n2-c2ccccc2)n1 [AS9A3] | 27 ± 8 | 51 ± 5 | – | –
4 | O=C(CSc1nnc(Cc2ccccc2)n1C1CCCCC1)NNC(=O)c1ccccc1O [AS9A4] | 17 ± 1 | 21 ± 2 | – | –
5 | Cc1cc(C)nc(SCc2nnc(SCC(=O)NNC(=O)c3ccccc3O)n2C)n1 [AS9A5] | < 100 | < 100 | – | –
6 | COc1ccccc1-n1c(SCC(=O)NNC(=O)c2ccccc2O)nnc1-c1ccccc1O [AS9A6] | 6 ± 1 | 8 ± 1 | – | –
7 | O=C(CSc1nnc(-c2ccncc2)n1-c1ccc(F)cc1)NNC(=O)c1ccccc1O [AS9A7] | 31 ± 2 | 49 ± 1 | – | –
8 | O=C(CSc1nnnn1-c1ccccc1)NNC(=O)c1ccc(O)cc1O [AS9A8] | 61 ± 6 | 68 ± 3 | – | –
9 | O=C(CSc1nnc(-c2ccc(Cl)cc2)n1-c1ccccc1)NNC(=O)c1ccccc1O [AS9A9] | 5 ± 1 | 11 ± 3 | – | –
10 | COc1ccc(-c2nnc(SCC(=O)NNC(=O)c3ccccc3O)n2-c2ccccc2)cc1OC [AS9A10] | 21 ± 1 | 22 ± 1 | – | –
11 | O=C(CSc1nnc(-c2ccccc2O)n1Cc1ccccc1)NNC(=O)c1ccccc1O [AS9A11] | 9 ± 2 | 15 ± 3 | – | –
12 | Cc1ccc(-n2c(SCC(=O)NNC(=O)c3ccccc3O)nnc2-c2ccccc2O)cc1 [AS9] | 3 ± 1 | 5 ± 2 | – | –
13 | COc1ccc(OC)c(C2C(C(=O)c3ccc(Cl)cc3)=C(O)C(=O)N2CCCCCC(=O)O)c1 (stereo not drawn) [AS16] | 40 ± 5 | 88 | – | –
14 | O=C(CSc1nnc(-c2ccccc2)n1Cc1ccccc1)NNC(=O)c1ccccc1O [AS90] | 9 ± 7 | 21 ± 6 | – | –
15 | Cc1ccc(-n2c(SCC(=O)NNC(=O)c3ccccc3O)nnc2-c2ccccc2)cc1 [AS120] | 12 ± 8 | 23 ± 6 | – | –
16 | COc1ccc(C2C(C(=O)c3ccc(Br)cc3)=C(O)C(=O)N2c2cccc(C(F)(F)F)c2)cc1OC (stereo not drawn) [AS134] | 26 ± 9 | 47 ± 7 | – | –
17 | Cc1ccc(C(=O)C2=C(O)C(=O)N(c3ncc(S(=O)(=O)c4ccc([N+](=O)[O-])cc4)s3)C2c2cccc(Cl)c2)cc1 (stereo not drawn) [AS139 BAS 02234865] | 8 ± 2 | 27 ± 10 | – | –
18 | COc1ccc(C2C(C(=O)c3ccc(Br)cc3)=C(O)C(=O)N2CCc2ccccc2)cc1OC (stereo not drawn) [AS143] | 42 ± 10 | 60 ± 3 | – | –
19 | CCOc1ccc(C(=O)C2=C(O)C(=O)N(c3nccs3)C2c2ccc(O)c(OC)c2)cc1 (stereo not drawn) [AS161] | 30 ± 7 | 57 ± 27 | – | –
20 | COc1ccc(C2C(C(=O)c3ccc(Br)cc3)=C(O)C(=O)N2c2cc(C(C)(C)C)on2)cc1OC (stereo not drawn) [AS171] | 43 ± 26 | 45 ± 8 | – | –
21 | O=C(CSc1nnc(Cc2ccccc2)n1-c1cccc(Cl)c1)NNC(=O)c1ccccc1O [AS230] | 8 ± 4 | 9 ± 1 | – | –
22 | O=C(O)c1cccc(-c2ccc(/C=N/Nc3nnn[nH]3)o2)c1 [AV15A1] | 96 ± 6 | > 100 | – | –
23 | N=C1NC(=O)/C(=C\c2ccc(-c3cccc(C(=O)O)c3)o2)S1 [AV15A2] | 90 ± 17 | > 100 | – | –
24 | O=C(O)c1cccc(-c2ccc(/C=N/NC(=O)c3cccnc3)o2)c1 [AV15A4] | 96 ± 6 | > 100 | – | –
25 | Nc1nonc1C(=O)N/N=C/c1ccc(-c2cccc(C(=O)O)c2)o1 [AV15A5] | 88 ± 21 | > 100 | – | –
26 | O=C(O)c1cccc(-c2ccc(/C=C3\Sc4ccccc4C3=O)o2)c1 [AV15A6] | 24 | 76 | – | –

Row | SMILES | IC50 [1, 3] [µM] | IC50 [2, 4] [µM] | IC50 [2, 5] [µM] | IC50 [1, 6] [µM]
27 | N#C/C(=C\c1ccc(-c2cccc(C(=O)O)c2)o1)c1nc2ccccc2[nH]1 [AV15A7] | 17 | > 100 | – | –
28 | N#C/C(=C\c1ccc(-c2ccc(O)c(C(=O)O)c2)o1)c1nc2ccccc2[nH]1 [AV15A9] | 14 ± 4 | 25 ± 10 | – | –
29 | N#C/C(=C\c1ccc(-c2ccc(Cl)c(C(=O)O)c2)o1)c1nc2ccccc2[nH]1 [AV15A10] | 30 | 76 | – | –
30 | CC1=C(C#N)c2nc(N)c(C#N)c(C)c2/C1=C/c1ccc(-c2cccc(C(=O)O)c2)o1 [AV15A11] | 20 ± 13 | 24 ± 16 | – | –
31 | O=C(O)c1cc(-c2ccc(/C=C/c3cc(C(F)(F)F)[nH]c(=O)n3)o2)ccc1Cl [AV15A12] | 50 ± 25 | 74 ± 32 | – | –
32 | O=C(O)c1cc(-c2ccc(/C=N/Nc3nc4nonc4nc3Nc3ccccc3F)o2)ccc1Cl [AV15A14] | 13 ± 5 | 16 ± 8 | – | –
33 | O=C(O)c1cc(-c2ccc(/C=N/Nc3nc4nonc4nc3Nc3ccc(F)cc3)o2)ccc1Cl [AV15A15] | 6.5 ± 1 | 12 ± 6 | – | –
34 | O=C(O)c1cccc(-c2ccc(/C=N/Nc3nc(N4CCOCC4)nc(N4CCOCC4)n3)o2)c1 [AV15A16] | > 100 | > 100 | – | –
35 | COc1cc(/C=N/Nc2nc3nonc3nc2Nc2ccccc2F)ccc1O [AV15A18] | 17 ± 5 | 30 ± 12 | – | –
36 | O=C(N/N=C/c1ccc(-c2ccc(Cl)cc2)o1)c1ccccc1 [AV15A29] | – | > 100 | – | –
37 | Cc1cccc(Nc2nc3nonc3nc2N/N=C/c2ccc(-c3ccccc3Cl)o2)c1C [AV15A33] | – | > 100 | – | –
38 | O=C(O)c1cccc(-c2ccc(/C=N/Nc3nc(Nc4ccccc4)nc(Nc4ccccc4)n3)o2)c1 [AV15A42] | – | 89 ± 19 | – | –
39 | N#C/C(=C\c1ccc(-c2cc(Cl)ccc2C(=O)O)o1)c1nc2ccccc2[nH]1 [AV15A52] | 51 | – | – | –
40 | COC(=O)c1ccc(C(=O)OC)c(NC(=O)c2ccc(C)c([N+](=O)[O-])c2)c1 [Compound X19] | – | – | 92 | –
41 | CCOC(=O)CCc1cc(C(=O)OCC)c(CCC(=O)OCC)cc1C(=O)OCC [Compound X35] | – | – | – | 94
42 | Cc1ccc(C=C2SC(=S)N(CCC(=O)Nc3cccc(C(=O)O)c3)C2=O)cc1 [Compound X100] | – | – | – | > 100
43 | COc1ccccc1C=C1SC(=S)N(CCC(=O)Nc2ccc(O)cc2)C1=O [Compound X118] | – | – | 99 ± 3 | –
44 | O=C(CCCN1C(=O)/C(=C/c2cccs2)SC1=S)Nc1nc2ccccc2s1 [Compound X178] | – | – | 98 ± 5 | –
45 | Cc1nc(=O)c(-c2ccccc2)c(C)n1-c1ccc(C(=O)O)c(O)c1 [Compound X181] | – | – | – | 73 ± 24
46 | O=C(NN1C(=O)/C(=C/c2ccc(Br)cc2)SC1=S)c1ccccc1O [Compound X220] | – | – | – | 27 ± 6
47 | O=C1C(=Cc2c(NCCO)nc3ccccn3c2=O)SC(=S)N1Cc1ccco1 [Compound X281] | – | – | > 100 | –
48 | O=C(Nc1nncs1)c1c(O)c2ccccc2n(Cc2ccccc2)c1=O [LM33] | – | – | – | 36
49 | Nc1nonc1-c1nc2ccccc2n1CC(=O)N/N=C/c1ccc(-c2cccc(C(=O)O)c2)o1 [NST20] | – | – | – | 68
50 | COC(=O)C1=C(C(=O)OC)SC(=C2C(=S)C(C)(C)N(C(=O)c3cccnc3)c3ccc(C)cc32)S1 [RT25] | – | – | > 100 | –
51 | C=CCn1c(=O)c(C(=O)Nc2ccccc2OC)c(O)c2ccccc21 [XR3] | – | – | – | 25
52 | CCn1c(=O)c(C(=O)Nc2ccccc2C(=O)OC)c(O)c2ccccc21 [XR15] | – | – | – | 9.5
